Test results from paper PMC5004176, “The antifungal plant defensin AtPDF2.3 from Arabidopsis thaliana blocks potassium channels” (Scientific Reports, 2016).
Ends that are not written are not given here.

Experiments:
HepG2 cells = assay type: cell-based; settings: up to 25 μM, 24 hours, XTT, relative to untreated, at least two experiments in quadruplicate
Procedure: HepG2 cells were seeded at 10.000 cells/well in 96-well plates and incubated for 24 hours. Subsequently, cells were treated either with water (untreated) or rAtPDF2.3 (0.01 μM–23.5 μM) for 24 hours after which cell viability was determined using the ‘Cell Proliferation Kit II (XTT) as described previously. ANOVA followed by Dunnett post hoc test was performed to analyze statistically significant differences between untreated and rAtPDF2.3-treated samples.
Supplementary Figure S4 Activity of rAtPDF2.3 on HepG2 cell viability. HepG2 cells were treated either with water (untreated) or rAtPDF2.3 (0.01 µM – 24.3 µM) for 24 hours, after which cell viability was determined by XTT staining. Results are expressed relative to the untreated samples. Mean ± standard error of at least two experiments in quadruplicate is shown. ANOVA followed by Dunnet post hoc test performed to analyze statistically significant differences between untreated and rAtPDF2.3-treated samples; * represents P = 0.03.
(1 picture or pasted object on this page, not shown here)

insect channel DmNav1 = experiment: Two-electrode voltage-clamp on DmNav1 expressed in X. laevis oocytes; assay type: cell-based; settings: 5 μM, n ≥ 4
Kv1.5 = experiment: Two-electrode voltage-clamp on Kv1.5 expressed in X. laevis oocytes; settings: 3 μM, n ≥ 3
Procedure: (§1) For the expression of the voltage-gated potassium channels (rKv1.1, rKv1.2, hKv1.3, rKv1.4, rKv1.5, rKv1.6, Shaker IR, hKv3.1, rKv4.3, and hERG) in Xenopus laevis oocytes, the linearized plasmids were transcribed using the T7 or SP6 mMESSAGE-mMACHINE transcription kit (Ambion). The harvesting of stage V–VI oocytes from an anaesthetized female X. laevis frog was previously described[59]. Oocytes were injected with 50 nL of cRNA at a concentration of 1 ng/nL using a micro-injector (Drummond Scientific, USA). The oocytes were incubated in a solution containing (in mM): NaCl, 96; KCl, 2; CaCl2, 1.8; MgCl2, 2 and HEPES, 5 (pH 7.4), supplemented with 50 mg/L gentamycin sulfate.
(§2) Two-electrode voltage-clamp recordings were performed at room temperature (18–22 °C) using a Geneclamp 500 amplifier (Molecular Devices, USA) controlled by a pClamp data acquisition system (Axon Instruments, USA). Whole cell currents from oocytes were recorded 1–4 days after injection. Bath solution composition was ND96 (in mM): NaCl, 96; KCl, 2; CaCl2, 1.8; MgCl2, 2 and HEPES, 5 (pH 7.4) or HK (in mM): NaCl, 2; KCl, 96; CaCl2, 1.8; MgCl2, 2 and HEPES, 5 (pH 7.4). Voltage and current electrodes were filled with 3 M KCl. Resistances of both electrodes were kept between 0.7 and 1.5 MΩ. […] GV curves were calculated from IV relationships as follows: gK = IK/(Em−EK) with EK = (RT/zF)ln[K #0]o/[K #0]i. […]

[1] = test system: Saccharomyces cerevisiae BY4741 ∆kkq8; experiment: Yeast growth inhibitory assay; assay type: cell-based; settings: BY4741 ∆kkq8, MM medium, 24 hours, OD490nm, mean ± SEM, n ≥ 3; read-out: IC50 (growth inhibition)
Kv2.1 = experiment: Two-electrode voltage-clamp on Kv2.1 expressed in X. laevis oocytes; settings: 3 μM, n ≥ 3
Procedure: as §1, §2

[2] = test system: Saccharomyces cerevisiae BY4741 ∆vhc1; experiment: Yeast growth inhibitory assay; assay type: cell-based; settings: BY4741 ∆vhc1, MM medium, 24 hours, OD490nm, mean ± SEM, n ≥ 3; read-out: IC50 (growth inhibition)
[3] = test system: Saccharomyces cerevisiae BY4743 WT; experiment: Yeast growth inhibitory assay; assay type: cell-based; settings: MM medium, 24 hours, OD490nm, mean ± SEM, n ≥ 3, read-out: IC50 (growth inhibition)
Kv1.3 = experiment: Two-electrode voltage-clamp on Kv1.3 expressed in X. laevis oocytes; settings: 3 μM, n ≥ 3
Procedure: as §1, §2

For “rAtPDF2.3: Arabidopsis thaliana plant defensin AtPDF2.3 produced recombinantly in Pichia pastoris (RTCESKSHRFKGPCVSTHNCANVCHNEGFGGGKCRGFRRRCYCTRHC; ends and bridges not checked; cysteine pairing not given here)”, the “cell viability in HepG2 cells” value (HepG2 cells) was “does not reduce cell viability”, the “activity on DmNav1” value (insect channel DmNav1) was “does not show activity” and the “activity on Kv1.5 at single concentration” value (Kv1.5) was “no effect”. For the same substance, the IC50 [1] was 7.1 ± 0.1 µM, the “activity on Kv2.1 (Shab) at single concentration” value (Kv2.1) was “no effect” and the IC50 [2] was 8 ± 0.2 µM. The IC50 [3] was 3.3 µM and the “activity on Kv1.3 at single concentration” value (Kv1.3) was “no effect”.
